# Laboratory results from patent US20250345277A1, “Ionizable Liposome, Preparation Thereof, and Application Thereof in Gene Delivery” (MAXIRNA (ZHEJIANG) TECHNOLOGY CO. LTD., priority 2021, published 2025).
# How the values were obtained:
# PBMC cells = assay: In vitro transfection of PBMC cells with EGFP mRNA LNP preparation (flow cytometry); type: cell-based; parameters: Cell Viability: concentration or dose not given beside the values; details: for Cell Viability / Positive Rate (EGFP): LNP preparation added with ApoE4; for Fluorescence Intensity: with ApoE4, EGFP mRNA expression level normalized based on the sample with the highest fluorescence intensity
# Excerpt: (§1) The description is based on peripheral blood mononuclear cells PBMC (Shanghai Oribiotech Co., Ltd.), human peripheral blood leukemia T cell Jurkat (ATCC), tumor infiltrating lymphocyte TIL (isolated from resected tumor tissue of a liver cancer patient, the preparation method refers to CN114763530A), mouse bone marrow-derived dendritic cells DC2.4 (Cell Bank of the Chinese Academy of Sciences), and Chinese hamster ovary cells CHO (ATCC) were used as verified cell lines for liposome transfection. PBMC, Jurkat, and TIL cells grew in suspension, while DC2.4 and CHO cells grew by adherent culture. All the operation steps of cell culture must strictly abide by the prescribed procedures, and sterile reagents is used to perform aseptic operations under a sterile workbench. The main steps are as follows: • 1) Cell recovery: the preserved cell cryopreservation solution was taken out of the −80° C. refrigerator, and was immediately put in a 37° C. water bath for rapid and continuous shaking, and was completely melted within one minute. Fresh medium was added to the 15 mL centrifuge tube in advance, and the cell solution was added to the centrifuge tube in a biological safety cabinet. A centrifuge tube of the same quality was taken and placed symmetrically in a centrifuge, centrifuged at a low speed at 1200 rpm for 5 min. After centrifugation, the supernatant was removed, and an appropriate amount of medium was slowly added along the tube wall. After the cells were evenly dispersed by blowing gently, the cell suspension was pipette and added to the culture bottle prepared in advance. The state and distribution of the cells in the early stage of recovery were observed under a microscope. The culture bottle was placed in a 5% CO2 incubator and incubated at 37° C., and the recovery time was recorded. • 2) Cell subculture: Under the microscope, if the cell density in the field of view reaches 80%-90%, the cells can be subcultured. Adherent cells need to be digested with trypsin. In order to avoid the residual serum in the culture medium to reduce the activity of trypsin, DPBS solution was added to wash once after removing the original culture medium. After remove the DPBS solution, trypsin was added to degrade the protein at the junction between cells. This separates the cells for further culture. The cells were gently shaked evenly and put into the incubator for digestion for 2 min. Immediately after the digestion was completed, an appropriate amount of medium was added to the original petri dish to terminate the digestion. Finally, the cells were carefully blowed off using a pipette and blowed until they are evenly dispersed, and then inoculated and subcultured at a certain ratio according to the experimental requirements.
# • 1) Coating antibodies: 6-well plates were pre-coated, CD3 and CD28 antibodies were taken out from the −20° C. refrigerator, and melted for later use. The above two antibodies were added into the DPBS solution at a concentration of 5 µg/mL, mixed well, added into a six-well plate at 1 mL/well, put in a 37° C. incubator, and waited 4 hours for later use. • 2) PBMC recovery: the frozen PBMC cells were taken out from the −80° C. refrigerator, put in a 37° C. water bath to quickly thaw the cells, added to the preheated medium after thawing, centrifuged at 1200 rpm for 5 min, the supernatant was discarded, and an appropriate amount of AIMN-V medium with 500 U/ml IL-2 was added to resuspend PBMC. • 3) the DPBS coated with the antibody was removed with a pipette, the cell suspension was transferred to a six-well plate pre-coated with the antibody at 4 mL per well, placed in a 5% CO2 incubator at 37° C. for 3-5 days for activation and culture. • 4) According to the experimental arrangement, PBMC cells were plated on a 24-well plate 30 minutes in advance on the day of cell transfection. […]
# DC2.4 cells = assay: In vitro transfection of DC2.4 cells with EGFP mRNA LNP preparation (flow cytometry); type: cell-based, mouse; details: for Cell Viability / Positive Rate (EGFP) / Fluorescence Intensity: DC2.4 cells; for Cell Viability / Positive Rate (EGFP): EGFP mRNA LNP, 200 ng mRNA per well, flow cytometry; for Fluorescence Intensity: EGFP mRNA expression level, normalized based on the sample with the highest fluorescence intensity
# Excerpt: as §1, with “requirements. […]” for “requirements.”
# • 1) DC2.4 cells recovery: the frozen DC2.4 cells were taken out from the −80° C. refrigerator, put in a 37° C. water bath to quickly thaw the cells, added to the preheated medium after thawing, centrifuged at 1200 rpm for 5 min, the supernatant was discarded, and an appropriate amount of DMEM medium with 10% FBS was added to resuspend the recovered DC2.4, and placed in a 5% CO2 incubator at 37° C. for activation and culture. • 2) According to the experimental arrangement, DC2.4 cells were plated on a 24-well plate one day in advance for cell transfection. Through cell counting, the number of cells and cell viability were recorded, the cell suspension were taken at 2×10^5 cells per well, then a certain volume of DMEM medium containing 10% FBS was added and mixed evenly, 1 mL of mixture was added to each well for subsequent transfection experiment. • 3) After 24 hours, the medium was gently removed 30 minutes in advance by a pipette, 1 mL DPBS was added to each well for washing and then removed, then 300 μL serum-free Opti-MEM medium was added to each well for subsequent transfection experiments.
# Subsequent steps are the same as the transfection protocol for PBMC cells. […]
SMILES,Cell Viability (PBMC cells; PBMCs) [%],Positive Rate (EGFP) (PBMC cells; PBMCs) [%],Fluorescence Intensity (PBMC cells; PBMCs),Cell Viability (DC2.4 cells) [%],Positive Rate (EGFP) (DC2.4 cells) [%],Fluorescence Intensity (DC2.4 cells),"transfection efficiency (FIG. 2) (PBMC cells; PBMC, in the absence of AopE4)","transfection efficiency (FIG. 3) (PBMC cells; PBMC, with ApoE4)","change of transfection efficiency with ApoE4 (FIG. 3) (PBMC cells; PBMC, with ApoE4 versus without)","cell viability by flow cytometry (FIG. 1) (PBMC cells; PBMCs, after in vitro transfection, ApoE4 did not affect viability)","cell viability by flow cytometry (FIG. 1) (DC2.4 cells; DC2.4, after in vitro transfection)","transfection efficiency (FIG. 2) (DC2.4 cells; DC2.4, in the absence of AopE4)"
CCCCCCCCCCC(O)CN(CCN1CCN(CCN(CCN(CC(O)CCCCCCCCCC)CC(O)CCCCCCCCCC)CCN(CC(O)CCCCCCCCCC)CC(O)CCCCCCCCCC)CC1)CC(O)CCCCCCCCCC (stereo not drawn) [A-C12],89.70,73.30,0.72,87.1,73.3,0.84,,,,,,
CCCCCCCCCCCCC(O)CN(CCN1CCN(CCN(CCN(CC(O)CCCCCCCCCCCC)CC(O)CCCCCCCCCCCC)CCN(CC(O)CCCCCCCCCCCC)CC(O)CCCCCCCCCCCC)CC1)CC(O)CCCCCCCCCCCC (stereo not drawn) [A-C14],91.20,72.30,0.76,95.4,92.3,0.30,,,,,,
CCCCCCCCCCCCCCC(O)CN(CCN1CCN(CCN(CCN(CC(O)CCCCCCCCCCCCCC)CC(O)CCCCCCCCCCCCCC)CCN(CC(O)CCCCCCCCCCCCCC)CC(O)CCCCCCCCCCCCCC)CC1)CC(O)CCCCCCCCCCCCCC (stereo not drawn) [A-C16],90.00,76.30,0.81,90.0,66.3,0.80,,,,,,
CCCCCCCCCCCCCCCCC(O)CN(CCN1CCN(CCN(CCN(CC(O)CCCCCCCCCCCCCCCC)CC(O)CCCCCCCCCCCCCCCC)CCN(CC(O)CCCCCCCCCCCCCCCC)CC(O)CCCCCCCCCCCCCCCC)CC1)CC(O)CCCCCCCCCCCCCCCC (stereo not drawn) [A-C18],85.00,81.90,0.87,93.0,61.9,0.87,,,,,,
"CCCCCCCCCCC(O)CN(CCOCCN(CCOCCN(CC(O)CCCCCCCCCC)CC(O)CCCCCCCCCC)CCN1CCN(CCOCCN(CC(O)CCCCCCCCCC)CC(O)CCCCCCCCCC)CC1)CC(O)CCCCCCCCCC (stereo not drawn) [B-C12, 19-(2-(4-(2-(2-(di(2-hydroxydodecyl)amino)ethoxy)ethyl)piperazin-1-yl)ethyl)-13, 15-bis(2-hydroxydodecyl)-16,22-dioxa-13,19,25-triazaheptakadecane-11,27-diol]",85.00,83.00,0.81,85.0,83.0,0.20,,,,,,
CCCCCCCCCCCCC(O)CN(CCOCCN(CCOCCN(CC(O)CCCCCCCCCCCC)CC(O)CCCCCCCCCCCC)CCN1CCN(CCOCCN(CC(O)CCCCCCCCCCCC)CC(O)CCCCCCCCCCCC)CC1)CC(O)CCCCCCCCCCCC (stereo not drawn) [B-C14],90.00,85.50,1,95.0,90.2,1.00,low transfection efficiency,over 75%,increased,high viability,high viability,high transfection efficiency
CCCCCCCCCCC(O)CN(CCOCCOCCN(CCOCCOCCN(CC(O)CCCCCCCCCC)CC(O)CCCCCCCCCC)CCN1CCN(CCOCCOCCN(CC(O)CCCCCCCCCC)CC(O)CCCCCCCCCC)CC1)CC(O)CCCCCCCCCC (stereo not drawn) [C-C12],89.30,56.50,0.41,94.0,64.4,0.71,,,,,,
CCCCCCCCCCC(O)CN(CCOCCOCCOCCN(CCOCCOCCOCCN(CC(O)CCCCCCCCCC)CC(O)CCCCCCCCCC)CCN1CCN(CCOCCOCCOCCN(CC(O)CCCCCCCCCC)CC(O)CCCCCCCCCC)CC1)CC(O)CCCCCCCCCC [D-C12],85.60,65.60,0.27,90.8,65.6,0.07,,,,,,
CCCCCCCCCCCCC(O)CN(CCOCCOCCOCCN(CCOCCOCCOCCN(CC(O)CCCCCCCCCCCC)CC(O)CCCCCCCCCCCC)CCN1CCN(CCOCCOCCOCCN(CC(O)CCCCCCCCCCCC)CC(O)CCCCCCCCCCCC)CC1)CC(O)CCCCCCCCCCCC [D-C14],88.70,96.70,0.25,91.3,96.7,0.95,,,,,,
CCCCCCCCCCCCCCC(O)CN(CCOCCOCCOCCN(CCOCCOCCOCCN(CC(O)CCCCCCCCCCCCCC)CC(O)CCCCCCCCCCCCCC)CCN1CCN(CCOCCOCCOCCN(CC(O)CCCCCCCCCCCCCC)CC(O)CCCCCCCCCCCCCC)CC1)CC(O)CCCCCCCCCCCCCC [D-C16],82.20,71.70,0.32,91.1,71.7,0.82,,,,,,
